Columns and labels:
Type in all cases: cell-based
BxPC-3 = test: Cell line viability screen, IC50 (CellTiter-Glo 3D); settings: BxPC3 cell line
Protocol: (§1) Compounds were tested on patient-derived tumor organoids. Such organoids retain the three-dimensional structure of the tissue providing conditions that are more representative of in vivo behavior. Such organoids are described by Boj, Sylvia, et al., Cell 160: 324 (2015), hereby incorporated by reference in its entirety. Briefly, cultures of primary and metastatic pancreatic tumor specimens as patient-derived xenografts, 3D tumor organoids, and patient-derived cell lines were produced including a cohort of 21 patient-derived xenografts and 67 organoid cultures from primary and metastatic pancreatic tumor specimens. The functional dependencies of compounds in these patient-derived samples were measured on a 3D organoid and its matched 2D patient-derived cell lines. Conditions were optimized for performing high-throughput compound screening of 3D organoids, including suspension culture with Matrigel in 384-well plates, viability assessment with CellTiter-Glo 3D. […] FIG. 2A illustrates the dose dependent responses of an enantioenriched sample of Compound E1 synthesized using an enantio-purified sample of E1 in the (R,R)-configuration (70% ee) (e.g., E1(R,R)), an enantioenriched sample of E1 (“E1(S,S)”), and racemic mixtures of E1 on NCIH2405 cells (“E1”).
(§2) Table 1 gives the IC50 values (μM) of compounds having the structure of formula (I) (including E1(S,S) and E1(Rac) in patient-derived organoids and several cell lines. Compounds E1-E12 were synthesized as described above as racemates (i.e., E1(Rac)-R12(Rac), and E1(S,S) and E1(R,R) were synthesized using the (S,S)-5 reagent or (R,R)-5 reagent, respectively, as described above.

NCIH2405 cells = test: as above; settings: read-out: IC50 NCIH 2405
Protocol: as §1, §2

OV-90 = test: as above; settings: OV90 cell line
Protocol: as §1, §2

PaTu 8902 = test: as above; settings: PaTu 8902 cell line
Protocol: as §1, §2

[1] = test system: PF0039 patient-derived organoid; test: Patient-derived organoid viability screen, IC50; settings: read-out: IC50 PF 0039
Protocol: as §1, §2

[2] = test system: PF0172_T2 patient-derived organoid; test: Patient-derived organoid viability screen, IC50; settings: read-out: IC50 PF 0172_T2
Protocol: as §1, §2

[3] = test system: PF0202 patient-derived organoid; test: Patient-derived organoid viability screen, IC50; settings: read-out: IC50 PF 0202
Protocol: as §1, §2

[4] = test system: patient derived organoids and cell lines; test: Organoid and cell line screen, panel (FIG. 1); settings: organoids PF0039, PF0071, PF0172-T2, PF0202, cell lines PaTu 8902, BxPC-3, NCIH2405, OV-90
Protocol: as §1

PF0071 organoids = test: PF0071 sensitivity screen (organoid dose response); set-up: key: Active: the analog typically with the lower IC50 value was identified as “active”; Inactive: the analog with the higher IC50 value was identified as “inactive.”; settings: optically pure enantiomers
Protocol: as §1
E1(Rac), E5(Rac), and E8(Rac) were synthesized as racemic mixtures (i.e., without a chiral catalyst) and separated into six optically pure compounds.
With the absolute stereochemistry identified, the correlation between specific isomer and activity was determined for PF0071 organoids. Table 2 compares the activities of each set of racemates that were measured as compared to the designations illustrated in FIG. 2B.
The response to dose of several compounds (including a linkered analog) on PF0071 organoids were run. Enantiomers of E1, E5, and E8 were tested and compared to results with a linked compound synthesized as a racemic mixture as described above (identified in FIG. 3 as “Linked E1(Rac)”) having the structure: […]

IC50 (BxPC-3) [µM]	SMILES	IC50 (NCIH2405 cells) [µM]	IC50 (OV-90) [µM]	IC50 (PaTu 8902) [µM]	IC50 [1] [µM]	IC50 [2] [µM]	IC50 [3] [µM]	Effect on viability across panel [4]	Activity (active or inactive) (PF0071 organoids)
> 100	COC1C=CC2C1N(CC(C)C)C(=O)N2c1ccccc1 (racemic) [Compound E1]	7.41	> 100	> 100	22.3	3.41	55.4	dose-dependent effect on only a subset of organoids	
> 100	CC(C)CN1C(=O)N(c2ccccc2)C2C=CC(O)C21 (racemic) [E2(Rac)]	> 100	> 100	> 100	31.7	4.05	> 100		
> 100	COC1C=CC2C1N(C)C(=O)N2c1ccccc1 (racemic) [E3(Rac)]	> 100	> 100	> 100	> 100	85.8	> 100		
96.4	CCOC1C=CC2C1N(CC(C)C)C(=O)N2c1ccccc1 (racemic) [E4(Rac)]	14.3	76.9	> 100	25.8	3.4	40.2		
64.4	COC1CCC2C1N(CC(C)C)C(=O)N2c1ccccc1 (racemic) [E5(Rac)]	4.11	83.3	> 100	7.26	1.16	16.5		
> 100	COC1C=CC2C1N(CC(C)C)C(=O)N2Cc1ccccc1 (racemic) [E6(Rac)]	> 100	96.4	> 100	40.7	17.4	65.3		
> 100	COC1C=CC2C1N(CC(C)C)C(=O)N2c1ccc(C#N)cc1 (racemic) [E7(Rac)]	> 100	> 100	75.1	> 100	> 100	≥ 100		
17.3	COC1C=CC2C1N(CC(C)C)C(=O)N2c1ccc(Cl)cc1 (racemic) [E8(Rac)]	2.58	30.7	33.9	8.19	2.15	27.9		
56.4	COc1ccc(N2C(=O)N(CC(C)C)C3C(OC)C=CC32)cc1 (racemic) [E9(Rac)]	58.8	65.5	76.8	43.5	88.6	47.1		
66.6	COC1C=CC2C1N(CC(C)C)C(=O)N2c1cccc(F)c1 (racemic) [E10(Rac)]	3.44	83.9	> 100	8.14	2.22	36.9		
> 100	COC1C=CC2C1N(CC(C)C)C(=O)N2c1ccc(F)cc1 (racemic) [E11(Rac)]	10.2	93.6	> 100	28.2	4.08	49.5		
> 100	COC1C=CC2C1N(CC(C)C)C(=O)N2c1ccc(C)cc1 (racemic) [E12(Rac)]	2.04	85.9	> 100	7.42	1.21	51.4		
	CO[C@@H]1CC[C@@H]2[C@H]1N(CC(C)C)C(=O)N2c1ccccc1 (stereo in doubt)								Active
	CO[C@H]1CC[C@H]2[C@@H]1N(CC(C)C)C(=O)N2c1ccccc1 (stereo in doubt)								Inactive
	CO[C@@H]1C=C[C@@H]2[C@H]1N(CC(C)C)C(=O)N2c1ccccc1 (stereo in doubt)								Active
	CO[C@H]1C=C[C@H]2[C@@H]1N(CC(C)C)C(=O)N2c1ccccc1 (stereo in doubt)								Inactive
	CO[C@@H]1C=C[C@@H]2[C@H]1N(CC(C)C)C(=O)N2c1ccc(Cl)cc1 (stereo in doubt)								Active
	CO[C@H]1C=C[C@H]2[C@@H]1N(CC(C)C)C(=O)N2c1ccc(Cl)cc1 (stereo in doubt)								Inactive

Reference: patent US12152008B2, “Cyclopentaimidazolones for the treatment of cancer” (The Broad Institute, Inc., priority 2018, dated 2024)
